In publication PMC6511888, “Synthesis, Biological Evaluation, and Molecular Modeling Studies of New Thiadiazole Derivatives as Potent P2X7 Receptor Inhibitors” (Frontiers in Chemistry, 2019):
In brackets after ≈: the same amount, converted by molar mass. Like-named read-outs stand apart in the source and are kept apart here.

Tests used:
[1] = Stability in human liver microsomes; format: in vitro ADME; conditions: pH 7.4, read-out: LM stability human (CLint)
Method: Thiadiazole 9f stability was evaluated in liver microsomes from male mice and humans according to Faria et al. in 2018 (Faria et al., [2018]). Both solutions contained a final protein concentration of 0.5 mg/ml (0.1 M phosphate buffer) at pH 7.4. Microsomes were preincubated with 9f (1 μM) and DMSO ([…]) at 37°C before NADPH (1 mM) addition. A control for the reaction was a buffer containing 0.1 M phosphate at pH 7.4 in a final volume of 50 μl. Diazepam and verapamil were used as positive controls for mice and humans, respectively. Both types of microsomes were treated with 9f for 0, 5, 15, 30, and 45 min and the negative control [minus Nicotinamide adenine dinucleotide phosphate (NADPH)] for 45 min. To stop the reactions, methanol (50 μl) was added at the appropriate time points, and the samples were centrifuged (1,640 × g) for 20 min at 4°C to […] protein precipitation.
In vitro intrinsic clearance (CLint mic) for the metabolism of 9f in mouse and human liver microsomes was calculated using the equations below:
Half-life (t1/2) (minutes) = 0.693/k (1)
V(μL/mg) = volume of the incubation solution (μl)/protein in the incubation solution (mg) (2)
Intrinsic clearance (CLint) (μl/minutes/mg protein) = V × 0.693/t1/2 (3) according to the manufacturer's instructions.

[2] = tested on: P2X7R-mediated IL-1β release; test: ATP-induced IL-1β release (ELISA) in differentiated THP-1 cells; format: cell-based, human
Method: P2X7R-mediated IL-1β release was obtained from differentiated THP-1 cells stimulated with lipopolysaccharide (LPS) before ATP addition. […] THP-1 cells were differentiated with 500 ng/ml phorbol 12-myristate 13-acetate (PMA) and 10 ng/ml IFN-γ cotreatment for 24 h. These cells were activated with 25 ng/ml LPS for 4 h. […] P2X7R antagonists (BBG and A740003) and thiadiazole analogs were added 30 min before the ATP stimulus. The supernatants were collected, centrifuged (1,000 rpm for 5 min at 4°C), and stored at −70°C after LPS incubation. IL-1β was quantified using a standard kit (ABCAM, Cambridge).

[3] = Distribution coefficient (Log D) in octanol/PBS pH 7.4; format: physicochemical; conditions: average of three experiments, read-out: Log D7.4
Method: Octanol and Phosphate-buffered saline (PBS) solution at a ratio of 1:1 (v/v) at pH 7.4 was shaken mechanically for 24 h to reach presaturation. Crescent octanol volumes (100–400 μl) were added to PBS (396 μl) and thiadiazole 9f (25 mM) in a volume of 4 μl. This solution was shaken for 2 h and centrifuged (3,000 rpm) for 5 min, and the PBS layer was collected 1 h later. To measure the PBS layer absorbance, a 100-μl aliquot (396 μl of PBS containing 4 μl of 9f + 400 μl of acetonitrile) was partitioned with acetonitrile (100 μl; Faria et al., [2018]).

[4] = target: T1, human P2X7R (Homo sapiens, UniProt Q99572); test: Dye uptake assay (ethidium bromide) in HEK-293 cells transfected with hP2X7R; format: cell-based; conditions: for IC50: ethidium uptake assay, HEK-293 cells transfected with human P2X7R, mean ± SD
T1 construct: expressed in transfected cells; host or cells: HEK-293
T1 sequence (Q99572 1-595): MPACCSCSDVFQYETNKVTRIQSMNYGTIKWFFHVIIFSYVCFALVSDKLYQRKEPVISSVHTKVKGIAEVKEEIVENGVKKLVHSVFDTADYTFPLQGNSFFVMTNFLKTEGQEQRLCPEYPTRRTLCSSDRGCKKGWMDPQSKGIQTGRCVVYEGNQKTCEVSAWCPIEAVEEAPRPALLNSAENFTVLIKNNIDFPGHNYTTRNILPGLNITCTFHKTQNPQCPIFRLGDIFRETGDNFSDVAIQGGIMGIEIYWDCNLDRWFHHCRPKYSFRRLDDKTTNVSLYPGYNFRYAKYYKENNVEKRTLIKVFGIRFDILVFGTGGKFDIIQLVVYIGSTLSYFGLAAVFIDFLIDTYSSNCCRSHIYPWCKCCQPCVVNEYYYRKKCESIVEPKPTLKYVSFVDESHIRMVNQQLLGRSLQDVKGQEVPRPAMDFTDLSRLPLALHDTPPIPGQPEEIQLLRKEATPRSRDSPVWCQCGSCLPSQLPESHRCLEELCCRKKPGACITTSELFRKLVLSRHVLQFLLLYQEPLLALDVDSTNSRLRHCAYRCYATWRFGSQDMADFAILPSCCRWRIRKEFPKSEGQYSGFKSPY
Method: HEK-293 cells expressing human P2X7R were maintained in Dulbecco's modified Eagle's medium (DMEM; Sigma-Aldrich) supplemented with 10% fetal bovine serum (FBS; Prolab, Br) and anti-biotics (50 U/ml penicillin and […] streptomycin) in a humidified 5% CO2 atmosphere at 37°C (Faria et al., [2018]). A total of 5 × 10^5 cells were plated at 37°C in a humidified 5% CO2 atmosphere for 24 h in a 96-well plate for dye uptake or IL-1β release assays.
HEK-293 cells transfected with hP2X7R and mouse peritoneal macrophages were plated at 2.5 × 10^6 or 5 × 10^5 cells/ml, respectively, in 96-well culture plates containing DMEM with 10% FBS and anti-biotics (50 U/ml penicillin and […] streptomycin) in a humidified 5% CO2 atmosphere at 37°C for 24 h (Faria et al., [2018]).
P2X7R antagonist and thiadiazole analogs (1 nM to 0.5 mM) were incubated for 5 min before ATP (5 mM) treatment for 20 min. In the last 5 min of ATP incubation, propidium iodide for macrophages (PI; 750 nM) or ethidium bromide (EB; 25 μM) for HEK-293 cells was added to all wells. PI dye was excited at a wavelength of 530 nm, and its fluorescence emission was read at a wavelength of 590 nm using an M5 plate reader (Molecular Devices). EB dye was excited at a wavelength of 530 nm and emitted at a wavelength of 620 nm.

[5] = pH-dependent kinetic solubility; format: physicochemical; conditions: kinetic from dmso stock
Method: DMSO stock solutions (5 μl) were added into a 995-μl acetonitrile/buffer (1:1) mixture to prepare the calibration standard solutions. The reaction samples were centrifuged (10,000 rpm, 10 min, 25°C) and diluted 1:1 with acetonitrile (Faria et al., [2018]).

[6] = target: T2, P2Y4R (Mus musculus, UniProt Q9JJS7); test: MRS4062-induced [Ca2+]i shifts in mice peritoneal macrophages; format: cell-based; conditions: concentration not given
T2 construct: endogenous in cells; host or cells: mouse peritoneal macrophages
T2 sequence (Q9JJS7 whole entry): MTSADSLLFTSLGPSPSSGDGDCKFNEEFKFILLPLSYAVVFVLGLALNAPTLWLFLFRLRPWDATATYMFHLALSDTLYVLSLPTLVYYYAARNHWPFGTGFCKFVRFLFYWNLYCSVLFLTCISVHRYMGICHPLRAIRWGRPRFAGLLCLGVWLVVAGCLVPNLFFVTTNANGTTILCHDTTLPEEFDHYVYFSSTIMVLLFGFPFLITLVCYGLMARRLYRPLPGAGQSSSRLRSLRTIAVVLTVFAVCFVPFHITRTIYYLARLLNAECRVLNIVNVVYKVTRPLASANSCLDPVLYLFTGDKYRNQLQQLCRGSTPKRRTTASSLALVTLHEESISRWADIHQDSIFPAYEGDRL
Method: Mouse peritoneal macrophages, PC12 cells, J774 cells, and HEPG2 cells were analyzed by fluorescence microscopy to measure the intracellular Ca^2+ concentrations ([Ca^2+]i). Cells were incubated with 2 μM Fura-2-AM (Molecular Probes) for 30 min, and the [Ca^2+]i mobilization was measured in the F340/F380 ratios with a FlexStation 3 multimode microplate reader (Molecular Devices). Cells were plated in translucent 96-well plates (BD Falcon) for 15 min and then washed and incubated in a saline solution with 150 NaCl, 5 KCl, 1 MgCl2, 1 CaCl2, and 10 HEPES (pH 7.4) for 30 min before measurements of [Ca^2+]i. The Ca^2+ influx was induced by stimulating cells with P2 receptor agonists. P2 receptor antagonists were added 10 min before P2 receptor agonist addition. […] Ionomycin was considered a positive control, and the other recordings were normalized in relation to the AUC.

[7] = ATP-induced IL-1β release, LPS/IFN-differentiated human THP-1 cells, read-out: THP-1 cells IC50
[8] = buffer, aqueous buffer, acidic pH values
[9] = phosphate buffer, pH 7.4, aqueous buffer
[10] = dye uptake, HEK-293-transfected cells

Compound | microsomal CLint at 1 μM [1] [µL/min/mg] | IC50 [2, 7] [nM] | Potency relative to BBG (times more potent) ([2]; IL-1β release, THP-1 cells) | logD [3] | IC50 [4] [nM] | solubility at 2 h [5, 8] [µM] | solubility at 2 h ([5]; buffer, pH 10, aqueous buffer) [µM] | solubility at 2 h [5, 9] [µM] | Effect on MRS4062-induced [Ca2+]i shifts [6] | IC50 ([2]; Homo sapiens, THP-1 cells, read-out: IC50, IL-1β release) [nM] | Potency relative to A740003 ([2]; IL-1β release, THP-1 cells) [times] | Potency relative to A740003 (times greater) [4, 10] | Potency relative to BBG (times greater) [4, 10]
N#Cc1cnn(-c2nnc(-c3ccccc3Cl)s2)c1N [Compound 9b] | 26.4 | 298 ± 8 | approximately 10 times | -1.2 ± 0.1 | 41 ± 8 | 300 (≈ 90.8 µg/mL) | > 500 | > 500 | – | – | – | – | –
CCOC(=O)c1cnn(-c2nnc(-c3ccccc3Cl)s2)c1N [Compound 9f] | 39.5 | 19 ± 3 | more than 20 times | -3.7 ± 0.2 | 11 ± 1 | 300 (≈ 105 µg/mL) | > 500 | > 500 | did not inhibit | 20 to 300 | > 10 | eight | more than 50 times
COc1ccc(CC(=O)NC(NC(=NC#N)Nc2cccc3ncccc23)C(C)(C)C)cc1OC (stereo not shown) [Compound A740003, N-(1-{[(cyanoimino)(5-quinolinylamino)methyl]amino}-2,2-dimethylpropyl)-2-(3,4-dimethoxyphenyl)acetamide] | – | 223 ± 18 | – | – | 97 ± 18 | – | – | – | did not inhibit | – | – | – | –
N#Cc1cnn(-c2nnc(-c3ccc(F)cc3)s2)c1N [Compound 9c] | 18.6 | 279 ± 35 | approximately 10 times | -0.9 ± 0.1 | 56 ± 2 | 300 (≈ 85.9 µg/mL) | > 500 | > 500 | – | – | – | – | –
Cc1cc(C)n(-c2nnc(-c3ccc(F)cc3)s2)n1 [Compound 11c, 2-(3,5-dimethyl-1H-pyrazol-1-yl)-5-(4-fluorophenyl)-1,3,4-thiadiazole] | 46.7 | 240 ± 17 | approximately 10 times | -4.2 ± 0.4 | 82 ± 5 | 300 (≈ 82.3 µg/mL) | > 500 | > 500 | – | – | – | – | –
